From ChEMBL document CHEMBL1806424, “The novel 3,4-dihydropyrimidin-2(1H)-one urea derivatives of N-aryl urea: synthesis, anti-inflammatory, antibacterial and antifungal activity evaluation” (2011)
Converted amounts (≈) assume the structure as drawn. The source made the active and inactive calls. No cut-off for these calls is given here.

What was measured:
[1] = tested on: THP-1; test: Antiinflammatory activity in human THP1 cells assessed as inhibition of LPS-induced TNFalpha production at 10 uM treated 30 mins before LPS challenge measured after 24 hrs by ELISA; type: functional
[2] = tested on: THP-1; test: Antiinflammatory activity in human THP1 cells assessed as inhibition of LPS-induced IL6 production at 10 uM treated 30 mins before LPS challenge measured after 24 hrs by ELISA; type: functional
[3] = tested on: Staphylococcus aureus; test: Antibacterial activity against Staphylococcus aureus; type: functional
[4] = tested on: Bacillus subtilis; test: Antibacterial activity against Bacillus subtilis; type: functional
[5] = tested on: Escherichia coli; test: Antibacterial activity against Escherichia coli; type: functional
[6] = tested on: Salmonella typhimurium; test: Antibacterial activity against Salmonella Typhimurium; type: functional, Salmonella enterica subsp. enterica serovar Typhimurium; details: Salmonella enterica
[7] = tested on: Candida albicans; test: Antifungal activity against Candida albicans; type: functional
[8] = tested on: Aspergillus niger; test: Antifungal activity against Aspergillus niger; type: functional
[9] = tested on: Fusarium solani; test: Antifungal activity against Fusarium solani; type: functional
[10] = tested on: Aspergillus flavus; test: Antifungal activity against Aspergillus flavus; type: functional
[11] = tested on: Bacillus subtilis; test: Antibacterial activity against Bacillus subtilis at 200 ug/ml; type: functional, organism-based
[12] = tested on: Escherichia coli; test: Antibacterial activity against Escherichia coli at 200 ug/ml; type: functional, organism-based
[13] = tested on: Salmonella typhimurium; test: Antibacterial activity against Salmonella Typhimurium at 200 ug/ml; type: functional, organism-based; details: Salmonella enterica subsp. enterica serovar Typhimurium
[14] = tested on: Aspergillus niger; test: Antifungal activity against Aspergillus niger at 200 ug/ml; type: functional, organism-based
[15] = tested on: Fusarium solani; test: Antifungal activity against Fusarium solani at 200 ug/ml; type: functional, organism-based
[16] = tested on: Aspergillus flavus; test: Antifungal activity against Aspergillus flavus at 200 ug/ml; type: functional, organism-based
[17] = tested on: Staphylococcus aureus; test: Ratio of ciprofloxacin MIC to compound MIC for Staphylococcus aureus; type: functional
[18] = tested on: Bacillus subtilis; test: Ratio of ciprofloxacin MIC to compound MIC for Bacillus subtilis; type: functional
[19] = tested on: Escherichia coli; test: Ratio of ciprofloxacin MIC to compound MIC for Escherichia coli; type: functional
[20] = tested on: Salmonella typhimurium; test: Ratio of ciprofloxacin MIC to compound MIC for Salmonella Typhimurium; type: functional, Salmonella enterica subsp. enterica serovar Typhimurium
[21] = tested on: Candida albicans; test: Ratio of miconazole MIC to compound MIC for Candida albicans; type: functional
[22] = tested on: Aspergillus niger; test: Ratio of miconazole MIC to compound MIC for Aspergillus niger; type: functional
[23] = tested on: Fusarium solani; test: Ratio of miconazole MIC to compound MIC for Fusarium solani; type: functional
[24] = tested on: Aspergillus flavus; test: Ratio of miconazole MIC to compound MIC for Aspergillus flavus; type: functional
[25] = tested on: Staphylococcus aureus; test: Antibacterial activity against Staphylococcus aureus at 200 ug/ml; type: functional, organism-based
[26] = tested on: Candida albicans; test: Antifungal activity against Candida albicans at 200 ug/ml; type: functional, organism-based

Compound | inhibition at 10 µM [1] | inhibition at 10 µM [2] | MIC [3] | MIC [4] | MIC [5] | MIC [6] | MIC [7] | MIC [8] | MIC [9] | MIC [10] | Activity [15] | also measured
CCOC(=O)C1=C(C)NC(=S)NC1c1ccc(NC(=O)Nc2cccc(C(F)(F)F)c2)cc1 (stereo not given) | 0% | 11% | 40 µg/mL (≈ 83.6 µM) | 55 µg/mL (≈ 115 µM) | 20 µg/mL (≈ 41.8 µM) | 40 µg/mL (≈ 83.6 µM) | 25 µg/mL (≈ 52.2 µM) | 20 µg/mL (≈ 41.8 µM) | 15 µg/mL (≈ 31.3 µM) | 15 µg/mL (≈ 31.3 µM) |  | 
CCOC(=O)C1=C(C)NC(=S)NC1c1ccc(NC(=O)Nc2ccc(C(F)(F)F)cc2)cc1 (stereo not given) | 3% | 55% | 20 µg/mL (≈ 41.8 µM) | 25 µg/mL (≈ 52.2 µM) | 10 µg/mL (≈ 20.9 µM) | 30 µg/mL (≈ 62.7 µM) | 15 µg/mL (≈ 31.3 µM) | 15 µg/mL (≈ 31.3 µM) | 10 µg/mL (≈ 20.9 µM) | 25 µg/mL (≈ 52.2 µM) |  | 
CCOC(=O)C1=C(C)NC(=S)NC1c1ccc(NC(=O)Nc2ccc(C(C)C)cc2)cc1 (stereo not given) | 30% | 65% | 85 µg/mL (≈ 188 µM) | 85 µg/mL (≈ 188 µM) | 55 µg/mL (≈ 122 µM) | 95 µg/mL (≈ 210 µM) | 90 µg/mL (≈ 199 µM) | 90 µg/mL (≈ 199 µM) | 80 µg/mL (≈ 177 µM) | 95 µg/mL (≈ 210 µM) |  | 
CCOC(=O)C1=C(C)NC(=S)NC1c1ccc(NC(=O)Nc2cc(F)cc(F)c2)cc1 (stereo not given) | 62% | 86% | 90 µg/mL (≈ 202 µM) |  |  |  | 95 µg/mL (≈ 213 µM) |  |  |  | inactive | Activity [11]: inactive; Activity [12]: inactive; Activity [13]: inactive; Activity [14]: inactive; Activity [16]: inactive
CCOC(=O)C1=C(C)NC(=S)NC1c1ccc(NC(=O)Nc2ccc(F)c(C)c2)cc1 (stereo not given) | 0% | 16% | 65 µg/mL (≈ 147 µM) | 90 µg/mL (≈ 203 µM) |  | 90 µg/mL (≈ 203 µM) | 80 µg/mL (≈ 181 µM) | 95 µg/mL (≈ 215 µM) |  | 95 µg/mL (≈ 215 µM) | inactive | Activity [12]: inactive
CCOC(=O)C1=C(C)NC(=S)NC1c1ccc(NC(=O)Nc2ccc(C)c(C)c2)cc1 (stereo not given) | 0% | 2% | 90 µg/mL (≈ 205 µM) | 95 µg/mL (≈ 217 µM) |  |  | 95 µg/mL (≈ 217 µM) |  |  |  | inactive | Activity [12]: inactive; Activity [13]: inactive; Activity [14]: inactive; Activity [16]: inactive
CCOC(=O)C1=C(C)NC(=S)NC1c1ccc([N+](=O)[O-])cc1 (stereo not given) | 0% | 8% | 35 µg/mL (≈ 109 µM) | 45 µg/mL (≈ 140 µM) | 30 µg/mL (≈ 93.4 µM) | 50 µg/mL (≈ 156 µM) | 30 µg/mL (≈ 93.4 µM) | 50 µg/mL (≈ 156 µM) | 60 µg/mL (≈ 187 µM) | 60 µg/mL (≈ 187 µM) |  | 
CCOC(=O)C1=C(C)NC(=S)NC1c1ccc(NC(=O)Nc2c(C)cccc2F)cc1 (stereo not given) | 0% | 6% | 60 µg/mL (≈ 136 µM) | 65 µg/mL (≈ 147 µM) | 30 µg/mL (≈ 67.8 µM) | 30 µg/mL (≈ 67.8 µM) | 50 µg/mL (≈ 113 µM) | 35 µg/mL (≈ 79.1 µM) | 40 µg/mL (≈ 90.4 µM) | 40 µg/mL (≈ 90.4 µM) |  | 
Clc1ccc(COC(Cn2ccnc2)c2ccc(Cl)cc2Cl)c(Cl)c1 (stereo not given) [MICONAZOLE] |  |  |  |  |  |  | 25 µg/mL (≈ 60.1 µM) | 20 µg/mL (≈ 48.1 µM) | 15 µg/mL (≈ 36 µM) | 20 µg/mL (≈ 48.1 µM) |  | 
CCOC(=O)C1=C(C)NC(=S)NC1c1ccc(NC(=O)Nc2ccccc2Cl)cc1 (stereo not given) | 0% | 43% | 10 µg/mL (≈ 22.5 µM) | 20 µg/mL (≈ 44.9 µM) | 10 µg/mL (≈ 22.5 µM) | 40 µg/mL (≈ 89.9 µM) | 10 µg/mL (≈ 22.5 µM) | 15 µg/mL (≈ 33.7 µM) | 15 µg/mL (≈ 33.7 µM) | 30 µg/mL (≈ 67.4 µM) |  | Ratio [17]: 1.5; Ratio [18]: 1.5; Ratio [19]: 1.5; Ratio [20]: 1.5; Ratio [21]: 2.5; Ratio [22]: 2.5; Ratio [23]: 2.5; Ratio [24]: 2.5
CCOC(=O)C1=C(C)NC(=S)NC1c1ccc(NC(=O)Nc2c(Cl)cccc2C(F)(F)F)cc1 (stereo not given) | 0% | 39% | 40 µg/mL (≈ 78 µM) | 85 µg/mL (≈ 166 µM) | 60 µg/mL (≈ 117 µM) | 90 µg/mL (≈ 175 µM) | 60 µg/mL (≈ 117 µM) | 65 µg/mL (≈ 127 µM) | 80 µg/mL (≈ 156 µM) | 55 µg/mL (≈ 107 µM) |  | 
CCCCc1ccc(NC(=O)Nc2ccc(C3NC(=S)NC(C)=C3C(=O)OCC)cc2)cc1 (stereo not given) | 0% | 10% |  |  | 95 µg/mL (≈ 204 µM) |  |  |  |  |  | inactive | Activity [25]: inactive; Activity [11]: inactive; Activity [13]: inactive; Activity [26]: inactive; Activity [14]: inactive; Activity [16]: inactive
CCOC(=O)C1=C(C)NC(=S)NC1c1ccc(NC(=O)Nc2ccccc2F)cc1 (stereo not given) | 0% | 40% | 10 µg/mL (≈ 23.3 µM) | 15 µg/mL (≈ 35 µM) | 10 µg/mL (≈ 23.3 µM) | 40 µg/mL (≈ 93.4 µM) | 10 µg/mL (≈ 23.3 µM) | 10 µg/mL (≈ 23.3 µM) | 15 µg/mL (≈ 35 µM) | 10 µg/mL (≈ 23.3 µM) |  | Ratio [17]: 1.5; Ratio [18]: 1.5; Ratio [19]: 1.5; Ratio [20]: 1.5; Ratio [21]: 2.5; Ratio [22]: 2.5; Ratio [23]: 2.5; Ratio [24]: 2.5
